Test results: patent US20160264616A1, “THERAPEUTIC COMPOUNDS AND METHODS” (priority 2015, published 2016)
Entries after “also recorded” stand apart in the source; their conditions may differ.

What was measured:
[1] = target: T1, RGS17:Gαo protein:protein interaction (Homo sapiens, UniProt Q9UGC6); test: Compound reversibility, washed/unwashed AlphaScreen; format: binding; details: RGS17 incubated with 100 μM, washed three times
T1 construct: This is the same RGS17 construct used in the high throughput screening campaign that is fully active despite the N-terminal truncation; made in house; host or cells: BL21 (DE3) E. coli for Gαo
T1 sequence (Q9UGC6 84-200 limits assumed): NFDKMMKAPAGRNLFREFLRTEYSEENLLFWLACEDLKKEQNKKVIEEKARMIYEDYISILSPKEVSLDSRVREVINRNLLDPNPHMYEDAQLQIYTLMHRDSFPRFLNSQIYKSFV
Procedure: To determine the reversibility of compound inhibition of the RGS17:Gαo protein:protein interaction, RGS17 was treated with 100 μM compound. This concentration was determined through the earlier dose-response experiments to inhibit the AlphaScreen assay >25% for each of the compounds (UI-5, UI-1590, UI-1907 and UI-1956). Upon completion of incubation with compounds, each sample was washed three times with ASB buffer. This method will promote dissociation of any compounds that are non-covalent where as any covalent modifiers would result in persistent protein:protein interaction inhibition.
First, stock solutions of all four compounds were made at a 3× concentration or 300 μM for a final concentration of 100 μM. The final DMSO concentration in the assay was 1%. Next, RGS17 and Gαo were diluted into 300 μL of assay buffer (AlphaScreen Buffer: ASB) (50 mM HEPES, 100 mM NaCl, 0.1% Lubrol, 1% bovine serum albumin [BSA], pH 8.0) at a 3× concentration of 30 nM. Next, 7.2 μL of AlphaScreen beads were added to each separate protein. The protein and bead solution was incubated on ice for 30 mins in the dark. Upon completion of protein:bead conjugation, 600 μL of ASB was added to RGS17. To the Gαo sample, 279 μL of AMF (final concentration of 10 μM NaF, […], 10 nM AlCl3, and 5 μM GDP) and 321 μL of ASB were added. The RGS17 sample was split into 90 μL tubes and 90 μL of each compound or DMSO vehicle was added to the RGS17:bead mixture and incubated for 15 mins. Upon completion of compound incubation, the RGS17:bead mixture was washed 3 times with 1.8 mL of ASB. The RGS17 protein:bead samples were pelleted after each wash through centrifugation at 15, 000×g for 10 mins. After the final wash step, the RGS17 protein:bead pellet was resuspended in 180 μL of ASB. Next, to a 384 white plate, 30 μL of the RGS17 protein:bead: compound samples either washed or unwashed were added to each well in triplicate. Finally, 15 μL of the Gαo protein:bead sample was added to each well. The plate was incubated at room temperature, in the dark, for 1.25 hours and read on a Synergy2 plate reader (Biotek, Wisnooski, Vt.) with a sensitivity setting of 200, excitation at 680 nm, and emission read at 570 nm. All data was analyzed with Graphpad Prism 6.0. All data was compared to DMSO controls and corrected for possible bead loss due to washing steps.

[2] = system: RGS17FL:Gαo interaction in HEK293T cells; test: RGS localization assay, GFP-RGS17FL co-transfected with human Gαo in HEK293T cells; format: cell-based; details: 100 μM, 0-10 min
Procedure: HEK293T cells co-transfected with GFP-RGS17FL and human Gαo were treated with UI-5, UI-1590 and […] to determine if the compounds could disrupt the RGS17:Gαo interaction that could drive RGS17 to the membrane. […] To test this hypothesis, we constructed a GFP-RGS17 fusion protein with an N-terminal truncation, removing the cysteine-rich motif. […] As a negative control, we tested a known RGS4 inhibitor (CCG-50014) in this assay against RGS17ΔN (21). […] Finally, to ensure the localization was not due to the GFP tag, pAcGFP vector was co-transfected into HEK293T cells with hGαo. […] Cross-sectional fluorescence intensity analysis was used to quantify the intensity of signal at a cross section of the cell. Average signal at the membrane and in the cytoplasm were calculated and change in signal intensity was assessed between time zero and time final. […] Additionally, the control condition of CCG-50014 was subject to the same analyses as the lead compound.
Twenty four (24) hours prior to plating, assay plates were coated with 30 μl poly-D-lysine per well. Human Embryonic Kidney 293T cells (HEK293T) were plated in to 96 well tissue culture treated glass bottom view plates (Perkin Elmer, Part No. 6005430) at a density of 25K cells per well. […] Images were analyzed using NIH Image J software and Graphpad Prism 6. […]

| SMILES | reversibility of inhibition after washing [1] | delocalization of full length RGS17FL [2] |
| --- | --- | --- |
| C[n+]1cc2c3c(ccc2c2ccc4cc5c(cc4c21)OCO5)OCO3 [UI-5] | reversible | remained at the membrane; also recorded: does not diffuse back in to the cytoplasm |
| CC1=C(O)C(=O)C=C2C1=CC=C1[C@@]2(C)CC[C@@]2(C)[C@@H]3C[C@](C)(C(=O)O)CC[C@]3(C)CC[C@]12C [UI-1590] | reversible |  |
| CC(C)=CCC[C@]1(C)C=Cc2c(O)c3c(c(CC=C(C)C)c2O1)O[C@]12C(=C[C@@H]4C[C@H]1C(C)(C)O[C@@]2(C/C=C(/C)C(=O)O)C4=O)C3=O [UI-1907] | reversible |  |
| O=c1c(-c2cc(O)c(O)c(O)c2)coc2cc(O)c(O)c(O)c12 [UI-1956, 5,6,7-trihydroxy-3-(3,4,5-trihydroxyphenyl)-4H-chromen-4-one] | reversible |  |
